Measurements: PMC11882969 (Nature Communications, 2025)
Values joined by “and” are separate entries in the source; they are usually repeats but may differ in a detail not shown here. Equal entries are not always repeated. Where two headings read alike, the source gives them in different places. Marks after values point to notes of the source that are not given here.

Key:
CB1 (rCB1) [1] = target: T1, CB1 (rCB1) (Rattus norvegicus, UniProt P20272); test: Single-point radioligand displacement screen; assay type: binding
AmpC β-lactamase = AmpC β-lactamase (Escherichia coli, UniProt P00811); assay type: biochemical; details: Rep 1-3 mean; sheet FigureS2c
Procedure: Enzyme inhibition assays to test for colloidal inhibition were performed at room temperature using CLARIOstar Plate Reader (BMG Labtech). Samples were prepared in 50 mM KPi buffer, pH 7.0 with final DMSO concentration at 1% (v/v). Compounds were incubated with 2 nM AmpC β-lactamase (AmpC) or Malate dehydrogenase (MDH) for 5 min. AmpC reactions were initiated by the addition of 50 μM CENTA chromogenic substrate (219475, Calbiochem). […] MDH reactions were initiated by the addition of 200 μM nicotinamide adenine dinucleotide (NADH) (54839, Sigma Aldrich) and 200 μM oxaloacetic acid (324427, Sigma Aldrich). The change in absorbance was monitored at 340 nm for 60 sec. Initial rates were divided by the DMSO control rate to determine % enzyme activity. […]. Data was analyzed using GraphPad Prism 9.1.

hCB1 [2] = target: T2, hCB1 (Homo sapiens, UniProt P21554); test: Lance Ultra cAMP accumulation assay, CHO cells; assay type: cell-based; set-up: expressed in transfected cells; details: for cAMP assay signal, concentration-response point: replicates, sheet FigureS2a;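 for all read-outs here: human CB1R stably expressed in CHO cells, ligands co-incubated with forskolin at room temperature, read-out is lowering of forskolin-stimulated cAMP accumulation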
hCB1 [3] = target: T2, hCB1; test: bioSensAll ebBRET signaling profiling, hCB1; assay type: cell-based; set-up: host or cells: HEK293SL cells, transient PEI transfection; details: for Barr2+GRK2 hCB1 response: Barr2+GRK2 biosensor; for Gi1 hCB1 / GoB hCB1: single replicate values, FigS6a; for Emax: normalized to CP-55,940
CB1 (rCB1) [4] = target: T1, CB1 (rCB1); test: Radioligand competition binding, [3H]-CP-55,940, rat brain membranes

AmpC β-lactamase, sequence (P00811 20-377): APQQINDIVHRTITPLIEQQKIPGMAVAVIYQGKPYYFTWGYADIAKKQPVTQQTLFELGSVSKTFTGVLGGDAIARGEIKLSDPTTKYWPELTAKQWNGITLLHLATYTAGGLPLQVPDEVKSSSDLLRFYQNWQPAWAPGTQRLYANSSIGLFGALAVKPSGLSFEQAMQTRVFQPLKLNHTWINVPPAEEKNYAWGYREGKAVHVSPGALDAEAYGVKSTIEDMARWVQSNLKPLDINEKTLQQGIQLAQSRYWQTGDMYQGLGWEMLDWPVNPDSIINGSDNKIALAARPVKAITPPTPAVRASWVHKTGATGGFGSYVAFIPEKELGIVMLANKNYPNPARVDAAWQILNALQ
T2 sequence (P21554 whole entry): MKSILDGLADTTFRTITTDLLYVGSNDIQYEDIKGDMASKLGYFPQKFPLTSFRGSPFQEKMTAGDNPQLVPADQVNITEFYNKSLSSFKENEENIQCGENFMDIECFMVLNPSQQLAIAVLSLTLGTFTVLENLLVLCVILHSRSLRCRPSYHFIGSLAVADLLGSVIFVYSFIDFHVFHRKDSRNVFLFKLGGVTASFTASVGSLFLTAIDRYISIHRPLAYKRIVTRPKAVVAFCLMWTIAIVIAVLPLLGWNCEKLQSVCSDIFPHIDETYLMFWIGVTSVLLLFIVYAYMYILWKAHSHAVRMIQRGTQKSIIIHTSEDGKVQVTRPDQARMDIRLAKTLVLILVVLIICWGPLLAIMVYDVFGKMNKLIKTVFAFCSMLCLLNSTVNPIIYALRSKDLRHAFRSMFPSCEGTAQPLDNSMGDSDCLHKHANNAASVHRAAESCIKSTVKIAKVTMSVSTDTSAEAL
T1 sequence (P20272 whole entry): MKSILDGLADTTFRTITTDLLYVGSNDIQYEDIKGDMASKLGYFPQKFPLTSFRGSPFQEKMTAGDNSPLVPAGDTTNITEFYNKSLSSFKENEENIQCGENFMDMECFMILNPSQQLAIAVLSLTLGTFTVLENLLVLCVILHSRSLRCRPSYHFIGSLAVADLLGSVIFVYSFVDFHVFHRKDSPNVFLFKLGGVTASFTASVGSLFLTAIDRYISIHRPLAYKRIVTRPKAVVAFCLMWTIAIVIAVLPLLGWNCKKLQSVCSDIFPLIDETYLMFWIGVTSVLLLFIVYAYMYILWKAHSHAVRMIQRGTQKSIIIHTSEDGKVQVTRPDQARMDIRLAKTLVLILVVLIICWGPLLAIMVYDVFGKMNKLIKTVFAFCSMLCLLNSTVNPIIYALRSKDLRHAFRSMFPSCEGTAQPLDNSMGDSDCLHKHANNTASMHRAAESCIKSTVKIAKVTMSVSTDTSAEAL

## Cn1nc(-c2nnc(C(C)(C)Oc3ccc(Cl)cc3)o2)c2ccccc2c1=O [‘0450]
CB1 (rCB1) [1]; 10 µM, 1 µM or 300 nM by cell colour (not visible)
  % 1H-CP-55,940 displacement (mean) from single point screen: 80.28%
CB1 (rCB1) [1]; Figure 1c source data, replicate 1
  rep1_displacement: 80.6
CB1 (rCB1) [1]; Figure 1c source data, replicate 2
  rep2_displacement: 81.2
CB1 (rCB1) [1]; Figure 1c source data, replicate 3
  rep3_displacement: 79
AmpC β-lactamase
  AMPC activity (DMSO = 100), replicate means: 142.819 and 64.3814 and 173.064
hCB1 [2]; compound 0.01 nM
  cAMP assay signal, concentration-response point: 0.002801 and 0.002457 and 0.003311
hCB1 [2]; compound 0.1 nM
  cAMP assay signal, concentration-response point: 0.004608* and 0.002375 and 0.002849
hCB1 [2]; compound 1 nM
  cAMP assay signal, concentration-response point: 0.002336 and 0.002132 and 0.002532
hCB1 [2]; compound 10 nM
  cAMP assay signal, concentration-response point: 0.002645 and 0.002538 and 0.002288
hCB1 [2]; compound 100 nM
  cAMP assay signal, concentration-response point: 0.002008 and 0.002532 and 0.002421
hCB1 [2]; compound 1000 nM
  cAMP assay signal, concentration-response point: 0.002545 and 0.002096 and 0.002506
hCB1 [2]; compound 10000 nM
  cAMP assay signal, concentration-response point: 0.001462 and 0.001302 and 0.001515
hCB1 [2]; compound 100000 nM
  cAMP assay signal, concentration-response point: 0.0002057* and 0.0001994* and 0.0002162*
hCB1 [2]; hCB1-expressing cells, in words
  agonism, inhibition of forskolin-stimulated cAMP: modest agonism
hCB1 [3]; Log [Compound] (M) -4.22186
  Barr2+GRK2 hCB1 response: 27.1048
  Gi1 hCB1: 20.433
  GoB hCB1: 28.3973
hCB1 [3]; Log [Compound] (M) -4.63927
  Barr2+GRK2 hCB1 response: -24.5851
  Gi1 hCB1: 13.3222
  GoB hCB1: 13.6053
hCB1 [3]; Log [Compound] (M) -5.05788
  Barr2+GRK2 hCB1 response: -35.4335
  Gi1 hCB1: 9.41
  GoB hCB1: 19.1089
hCB1 [3]; Log [Compound] (M) -5.47381
  Barr2+GRK2 hCB1 response: -53.9398
  Gi1 hCB1: 7.763
  GoB hCB1: 13.8657
hCB1 [3]; Log [Compound] (M) -5.89285
  Barr2+GRK2 hCB1 response: -49.1537
  Gi1 hCB1: 5.34
  GoB hCB1: 8.258
hCB1 [3]; Log [Compound] (M) -6.31878
  Barr2+GRK2 hCB1 response: -46.282
  Gi1 hCB1: 2.791
  GoB hCB1: 3.397
hCB1 [3]; Log [Compound] (M) -6.72585
  Barr2+GRK2 hCB1 response: -46.9202
  Gi1 hCB1: -1.469
  GoB hCB1: -0.5617
hCB1 [3]; Log [Compound] (M) -7.14267
  Barr2+GRK2 hCB1 response: -54.5779
  Gi1 hCB1: -3.893
  GoB hCB1: -2.489
hCB1 [3]; Log [Compound] (M) -7.55284
  Barr2+GRK2 hCB1 response: -56.4924
  Gi1 hCB1: -6.6323
  GoB hCB1: -6.586
hCB1 [3]; Log [Compound] (M) -8
  Barr2+GRK2 hCB1 response: -48.8346
  Gi1 hCB1: -3.861
  GoB hCB1: -8.513
hCB1 [3]; Log [Compound] (M) -8.22186
  Barr2+GRK2 hCB1 response: -5.441
  Gi1 hCB1: 0.6527
  GoB hCB1: -4.433
hCB1 [3]; Log [Compound] (M) -8.39794
  Barr2+GRK2 hCB1 response: -31.2856
  Gi1 hCB1: -6.221
  GoB hCB1: -7.35
hCB1 [3]; Log [Compound] (M) -8.68787
  Barr2+GRK2 hCB1 response: -55.2161
  Gi1 hCB1: -4.3993
  GoB hCB1: -5.892
hCB1 [3]; Log [Compound] (M) -9.15521
  Barr2+GRK2 hCB1 response: -35.1145
  Gi1 hCB1: -5.159
  GoB hCB1: -7.419
hCB1 [3]; Log [Compound] (M) -9.61989
  Barr2+GRK2 hCB1 response: -47.5583
  Gi1 hCB1: -4.621
  GoB hCB1: -5.371
hCB1 [3]; Log [Compound] (M) -10.0969
  Barr2+GRK2 hCB1 response: -52.0253
  Gi1 hCB1: -6.442
  GoB hCB1: -8.097
hCB1 [3]; Log [Compound] (M) -10.5529
  Barr2+GRK2 hCB1 response: -34.4763
  GoB hCB1: -7.003
hCB1 [3]; Log [Compound] (M) -11.0177
  Barr2+GRK2 hCB1 response: -42.1341
  Gi1 hCB1: -5.524
  GoB hCB1: -9.104
hCB1 [3]; Log [Compound] (M) -11.4949
  Barr2+GRK2 hCB1 response: -48.5155
  Gi1 hCB1: -5.872
  GoB hCB1: -8.479
hCB1 [3]; Log [Compound] (M) -11.9208
  Barr2+GRK2 hCB1 response: -49.1537
  Gi1 hCB1: -6.363
  GoB hCB1: -7.454
hCB1 [3]; Log [Compound] (M) -12.3979
  Barr2+GRK2 hCB1 response: -55.5351
  Gi1 hCB1: -5.935
  GoB hCB1: -8.392
hCB1 [3]; Log [Compound] (M) -12.8861
  Barr2+GRK2 hCB1 response: -37.0289
  Gi1 hCB1: -4.653
  GoB hCB1: -8.739
hCB1 [3]; Log [Compound] (M) -13.3979
  Barr2+GRK2 hCB1 response: -10.8649
hCB1 [3]; Log [Compound] (M) -13
  Gi1 hCB1: -5.191
  GoB hCB1: -7.871
hCB1 [3]; Log [Compound] (M) cell empty
  Gi1 hCB1: -4.795
  GoB hCB1: -4.173
hCB1 [3]; hCB1 GoB
  pEC50 [95% CI]: 5.6 [3.0 – 6.2]
hCB1 [3]; read-out: Emax [95% CI], hCB1 Gi1
  Emax: 49%
hCB1 [3]; read-out: Emax [95% CI], hCB1 GoB
  Emax: 36%
CB1 (rCB1) [4]; log[drug] -3.643
  radioligand binding remaining, competition curve (Figure2e), replicate values: 3.776 and 13.0342 and 10.5924
CB1 (rCB1) [4]; log[drug] -4.35655
  radioligand binding remaining, competition curve (Figure2e), replicate values: -5.187 and 0.4808 and -3.246
CB1 (rCB1) [4]; log[drug] -5.07
  radioligand binding remaining, competition curve (Figure2e), replicate values: 1.22 and 4.986 and -3.564
CB1 (rCB1) [4]; log[drug] -5.783
  radioligand binding remaining, competition curve (Figure2e), replicate values: 44.8894 and 48.8782 and 38.7216
CB1 (rCB1) [4]; log[drug] -6.496
  radioligand binding remaining, competition curve (Figure2e), replicate values: 82.7231 and 84.8647 and 75.4685
CB1 (rCB1) [4]; log[drug] -7.21
  radioligand binding remaining, competition curve (Figure2e), replicate values: 103.471 and 87.6068 and 85.0402
CB1 (rCB1) [4]; log[drug] -7.923
  radioligand binding remaining, competition curve (Figure2e), replicate values: 98.6842 and 84.2236 and 81.6265
CB1 (rCB1) [4]; log[drug] -8.636
  radioligand binding remaining, competition curve (Figure2e), replicate values: 102.059 and 98.0413 and 100.669
CB1 (rCB1) [4]; rCB1
  pKi [95% CI]: 6.16 [5.99 – 6.34]
